≈ marks a conversion by molar mass, not a printed value.

For experiment [1], the system named is Pseudomonas aeruginosa ATCC 27853. Put plainly: MIC, broth microdilution (CLSI) versus planktonic bacteria. The format is cell-based. The note with it: ATCC27853; Pseudomonas aeruginosa ATCC 27853; 16-20 h; mode of three independent experiments; read-out: MIC, Pa ATCC 27853. Background: Dilution methods test growth across graded concentrations, often in twofold steps.

The subject of experiment [2] is Staphylococcus aureus ATCC 29213. Described as above. The experiment is classed as cell-based. The note with it: ATCC29213; Staphylococcus aureus ATCC 29213; 16-20 h; mode of three independent experiments; read-out: MIC, Sa ATCC 29213.
Experiment [3] deals with Streptococcus pneumoniae ATCC 49619. The description is as above. The format is cell-based. The note with it: ATCC49619; Streptococcus pneumoniae ATCC 49619; 16-20 h; mode of three independent experiments; read-out: MIC, Sp ATCC 49619.
Experiment [4] concerns Enterobacter cloacae NCTC 13406. The experiment is described as above. The experiment is classed as cell-based. The note with it: NCTC13406; Enterobacter cloacae NCTC 13406; 16-20 h; mode of three independent experiments; read-out: MIC, Ecl NCTC 13406.
Experiment [5] has as its system Haemophilus influenzae ATCC 49247. Described as above. The experiment is classed as cell-based. The note with it: ATCC49247; Haemophilus influenzae ATCC 49247; 16-20 h; mode of three independent experiments; read-out: MIC, Hi ATCC 49247.
The next experiment has as its system E. coli MG1655 D87G. The format is cell-based, Escherichia coli. The note with it: compared to the isogenic parent strain E. coli MG1655; D87G mutation on DNA gyrase subunit GyrA.
The subject of experiment [6] is Acinetobacter baumannii ATCC 19606. Put plainly: MIC, broth microdilution (CLSI) versus planktonic bacteria. The experiment is classed as cell-based. The note with it: ATCC19606; Acinetobacter baumannii ATCC 19606; 16-20 h; mode of three independent experiments; read-out: MIC, Ab ATCC 19606.
The subject of a further experiment is E. coli ATCC BAA-2452. The experiment is described as above. The experiment is classed as cell-based. The note with it: Escherichia coli ATCC BAA-2452; 16-20 h; mode of three independent experiments; read-out: MIC, Ec ATCC BAA 2452.
The subject of experiment [7] is Escherichia coli ATCC 25922. The description is as above. The experiment is classed as cell-based. The note with it: ATCC25922; Escherichia coli ATCC 25922; 16-20 h; mode of three independent experiments; read-out: MIC, Ec ATCC 25922.
A further experiment deals with E. coli MG1655 S83L. The experiment is classed as cell-based, Escherichia coli. The note with it: compared to the isogenic parent strain E. coli MG1655; S83L mutation on DNA gyrase subunit GyrA.
The next experiment relates to E. coli MG1655. Put plainly: MIC, broth microdilution (CLSI) versus planktonic bacteria. The experiment is classed as cell-based, Escherichia coli. The note with it: Escherichia coli, MG1655, read-out: MIC, Ec MG1655 WT.
Experiment [8] deals with Acinetobacter baumannii NCTC 13420. Described as above. The experiment is classed as cell-based. The note with it: NCTC13420; Acinetobacter baumannii NCTC 13420; 16-20 h; mode of three independent experiments; read-out: MIC, Ab NCTC 13420.
Experiment [9] concerns human hepatic cell line (HepG2 ATCC HB-8065). Nature of the experiment: Human cell viability assay (CellTiter-Glo). The note with it: Homo sapiens, HepG2, 24 h, read-out: IC50 (μg/mL) HepG2. In general terms: Cellular ATP, detected with luciferase, serves as a proxy for viable cell number.
The test system of the next experiment is E. coli NCTC 13476. Put plainly: MIC, broth microdilution (CLSI) versus planktonic bacteria. The format is cell-based. The note with it: NCTC13476; Escherichia coli NCTC 13476; 16-20 h; mode of three independent experiments; read-out: MIC, Ec NCTC 13476.

As for `N#Cc1ccc2ncc(=O)n(CCN[C@H]3CC[C@H]4[C@@H](C3)OC(=O)N4c3ccc4c(n3)NC(=O)CO4)c2c1` [Compound 31, 4-(2-{[(3aS,6S,7aR)-2-oxo-3-{3-oxo-2H,3H,4H-pyrido[3,2-b][1,4]oxazin-6-yl}-octahydro-1,3-benzoxazol-6-yl]amino}ethyl)-3-oxo-3,4-dihydroquinoxaline-6-carbonitrile], the MIC in experiment [1] is 1 to 10 µg/mL (≈ 1.99 to 19.9 µM); in experiment [2] it was less than 1 µg/mL; in experiment [3] it was less than 1 µg/mL; in experiment [4] it was less than 1 µg/mL; in experiment [5], less than 1 µg/mL; in experiment [6] it was less than 1 µg/mL. Moreover, the MIC in the experiment with E. coli ATCC BAA-2452 was less than 1 µg/mL; in experiment [7], less than 1 µg/mL; with E. coli MG1655 it was less than 1 µg/mL; in experiment [8] it was less than 1 µg/mL; in the experiment on E. coli NCTC 13476, 1 to 10 µg/mL (≈ 1.99 to 19.9 µM). In the experiment with E. coli MG1655 D87G, the “Fold increase in MIC, E. coli MG1655 D87G” value is 2 fold. The “Fold increase in MIC, E. coli MG1655 S83L” value in the experiment with E. coli MG1655 S83L is 1 fold. The IC50 in experiment [9] is greater than 100 µg/mL.

As to `N#Cc1ccc2ncc(=O)n(CCN[C@@H]3CC[C@@H]4[C@@H](C3)OC(=O)N4c3ccc4c(n3)NC(=O)CO4)c2c1` [Compound 68, 4-(2-{[(3aR,6R,7aR)-2-oxo-3-{3-oxo-2H,3H,4H-pyrido[3,2-b][1,4]oxazin-6-yl}-octahydro-1,3-benzoxazol-6-yl]amino}ethyl)-3-oxo-3,4-dihydroquinoxaline-6-carbonitrile], the MIC in [1] is 1 to 10 µg/mL (≈ 1.99 to 19.9 µM); in [2], less than 1 µg/mL; in experiment [3], less than 1 µg/mL; in experiment [4], less than 1 µg/mL; in experiment [5], less than 1 µg/mL; in experiment [6], less than 1 µg/mL. In addition, the MIC (with E. coli ATCC BAA-2452; in experiment [7]; in the experiment on E. coli MG1655; in experiment [8]; with E. coli NCTC 13476) was less than 1 µg/mL each time. For the same compound, the “Fold increase in MIC, E. coli MG1655 D87G” value in the experiment on E. coli MG1655 D87G was 1 fold. In addition, the “Fold increase in MIC, E. coli MG1655 S83L” value in the experiment with E. coli MG1655 S83L is 1 fold. For the same compound, the IC50 in experiment [9] lay in the range of 10 to 100 µg/mL (≈ 19.9 to 199 µM).

Take `N#Cc1cnc2ccc(=O)n(CCN[C@H]3CC[C@H]4[C@@H](C3)OC(=O)N4c3ccc4c(n3)NC(=O)CO4)c2c1` [Compound 46, 5-(2-{[(3aS,6S,7aR)-2-oxo-3-{3-oxo-2H,3H,4H-pyrido[3,2-b][1,4]oxazin-6-yl}-octahydro-1,3-benzoxazol-6-yl]amino}ethyl)-6-oxo-5,6-dihydro-1,5-naphthyridine-3-carbonitrile]: the MIC in experiment [1] was 1 to 10 µg/mL (≈ 1.99 to 19.9 µM); in experiment [2], less than 1 µg/mL; in experiment [3], less than 1 µg/mL; in [4], less than 1 µg/mL; in experiment [5], less than 1 µg/mL; in experiment [6], 1 to 10 µg/mL (≈ 1.99 to 19.9 µM). The MIC with E. coli ATCC BAA-2452 was 1 to 10 µg/mL (≈ 1.99 to 19.9 µM); in experiment [7], less than 1 µg/mL; with E. coli MG1655, less than 1 µg/mL; in experiment [8], 1 to 10 µg/mL (≈ 1.99 to 19.9 µM); in the experiment with E. coli NCTC 13476, 1 to 10 µg/mL (≈ 1.99 to 19.9 µM). Moreover, in the experiment on E. coli MG1655 D87G, the “Fold increase in MIC, E. coli MG1655 D87G” value is recorded as 1 fold. The “Fold increase in MIC, E. coli MG1655 S83L” value with E. coli MG1655 S83L was found to be 2 fold. The IC50 in experiment [9] is greater than 100 µg/mL.

For `O=C1COc2ccc(N3C(=O)O[C@H]4C[C@@H](NCCCn5c(=O)cnc6cc(F)c(F)cc65)CC[C@@H]43)nc2N1` [Compound 90, 1-(3-{[(3aS,6S,7aS)-2-oxo-3-{3-oxo-2H,3H,4H-pyrido[3,2-b][1,4]oxazin-6-yl}-octahydro-1,3-benzoxazol-6-yl]amino}propyl)-6,7-difluoro-1,2-dihydroquinoxalin-2-one], the MIC was 1 to 10 µg/mL (≈ 1.9 to 19 µM) in experiment [1]; less than 1 µg/mL in [2]; less than 1 µg/mL in [3]; less than 1 µg/mL in experiment [4]; less than 1 µg/mL in experiment [5]; less than 1 µg/mL in [6]. The MIC (in the experiment on E. coli ATCC BAA-2452; in experiment [7]; in the experiment with E. coli MG1655; in experiment [8]; in the experiment on E. coli NCTC 13476) was less than 1 µg/mL in each case. The “Fold increase in MIC, E. coli MG1655 D87G” value in the experiment on E. coli MG1655 D87G was 4 fold. In the experiment with E. coli MG1655 S83L, the “Fold increase in MIC, E. coli MG1655 S83L” value was determined as 2 fold. For the same compound, the IC50 in [9] lay in the range of 10 to 100 µg/mL (≈ 19 to 190 µM).

As for `COc1ccc2ccc(=O)n(CCN[C@@H]3CC[C@@H]4[C@@H](C3)OC(=O)N4c3ncc4c(n3)NC(=O)CO4)c2n1` [Compound 44, 1-(2-{[(3aR,6R,7aR)-2-oxo-3-{7-oxo-6H,7H,8H-pyrimido[5,4-b][1,4]oxazin-2-yl}-octahydro-1,3-benzoxazol-6-yl]amino}ethyl)-7-methoxy-1,2-dihydro-1,8-naphthyridin-2-one], the MIC is 1 to 10 µg/mL (≈ 1.97 to 19.7 µM) in experiment [1]; less than 1 µg/mL in experiment [2]; less than 1 µg/mL in experiment [3]; less than 1 µg/mL in experiment [4]; less than 1 µg/mL in experiment [5]; less than 1 µg/mL in experiment [6]. Moreover, the MIC was less than 1 µg/mL in the experiment with E. coli ATCC BAA-2452; less than 1 µg/mL in [7]; less than 1 µg/mL with E. coli MG1655; less than 1 µg/mL in experiment [8]; 1 to 10 µg/mL (≈ 1.97 to 19.7 µM) with E. coli NCTC 13476. In the experiment with E. coli MG1655 D87G, the “Fold increase in MIC, E. coli MG1655 D87G” value is 2 fold. Besides, in the experiment on E. coli MG1655 S83L, the “Fold increase in MIC, E. coli MG1655 S83L” value is given as 2 fold. For the same compound, the IC50 in experiment [9] is greater than 100 µg/mL.

Take `O=C1COc2ccc(N3C(=O)O[C@H]4C[C@@H](NCCCn5c(=O)cnc6ccc(F)cc65)CC[C@@H]43)nc2N1` [Compound 92, 1-(3-{[(3aS,6S,7aS)-2-oxo-3-{3-oxo-2H,3H,4H-pyrido[3,2-b][1,4]oxazin-6-yl}-octahydro-1,3-benzoxazol-6-yl]amino}propyl)-7-fluoro-1,2-dihydroquinoxalin-2-one]: the MIC in [1], in experiment [2], in experiment [3], in [4], in experiment [5] and in experiment [6] was less than 1 µg/mL each time. In addition, the MIC (in the experiment on E. coli ATCC BAA-2452; in [7]; with E. coli MG1655; in [8]; in the experiment with E. coli NCTC 13476) was less than 1 µg/mL each time. Moreover, the “Fold increase in MIC, E. coli MG1655 D87G” value with E. coli MG1655 D87G was 1 fold. Further, in the experiment with E. coli MG1655 S83L, the “Fold increase in MIC, E. coli MG1655 S83L” value came to 1 fold. The IC50 in [9] was greater than 100 µg/mL.

Turning to `COc1cnc2ccc(=O)n(CCCN[C@H]3CC[C@H]4[C@H](C3)OC(=O)N4c3ccc4c(n3)NC(=O)CO4)c2c1` [Compound 99, 1-(3-{[(3aS,6S,7aS)-2-oxo-3-{3-oxo-2H,3H,4H-pyrido[3,2-b][1,4]oxazin-6-yl}-octahydro-1,3-benzoxazol-6-yl]amino}propyl)-7-methoxy-1,2-dihydro-1,5-naphthyridin-2-one], the MIC in [1] was 1 to 10 µg/mL (≈ 1.92 to 19.2 µM); in [2], less than 1 µg/mL; in experiment [3], less than 1 µg/mL; in experiment [4] it was 1 to 10 µg/mL (≈ 1.92 to 19.2 µM); in experiment [5], less than 1 µg/mL; in [6], 1 to 10 µg/mL (≈ 1.92 to 19.2 µM). The MIC (in the experiment with E. coli ATCC BAA-2452; in experiment [7]; in the experiment on E. coli MG1655; in experiment [8]; in the experiment on E. coli NCTC 13476) was less than 1 µg/mL in each case. In addition, the “Fold increase in MIC, E. coli MG1655 D87G” value in the experiment on E. coli MG1655 D87G amounted to 1 fold. Besides, the “Fold increase in MIC, E. coli MG1655 S83L” value in the experiment with E. coli MG1655 S83L stood at 0.5 fold. In addition, in experiment [9], the IC50 is 10 to 100 µg/mL (≈ 19.2 to 192 µM).

These data come from patent US10487093B2, “Heterocyclic compounds, in particular 2-oxo-4,4,5,5,6,6,7,7-octahydrobenzoxazole derivatives, and their use as antibacterial compounds” (priority 2016, dated 2019).
